Test results from patent publication US20240034761A1, “REGENERATION OF MAMMALIAN TISSUES USING SYNTHETIC IMMODULINS” (priority 2022, published 2024).
Marks after values point to notes of the source that are not given here.

Tested on: THP1-Dual monocyte reporter cell line
Assay: Adjuvant effect of helper molecules on immX3 peptide potency in THP1-Dual assay
Type: cell-based, human
Description: Mammalian cell differentiation assays employed the THP1-Dual monocyte reporter cell line (Invivogen Inc, San Diego, CA) seeded at 2×10e5 cells per well in 96-well plates and cultured at 37 degrees C. in RPMI-1640 growth medium plus 10% fetal bovine serum and 1% penicillin/streptomycin. Cells were subsequently treated for 24 hours with 100 ng/ml Phorbol 12-myristate 13-acetate (PMA protocol; Cayman Chemical Company, Ann Arbor, MI). Peptide (0.33 uM or 0.66 uM, as indicated) was then added, and incubation continued for an additional 24 hours. Culture supernatants were assayed for CCL22. Plates with adherent cells were washed with PBS and assayed for immunoreactivity of surface markers such as CD169, Clec9a or Clec12a using fuorescent tag- or biotin-labeled anti-human antibodies purchased from Miltenyi Biotec (Auburn, CA) and the secondary detection reagent recommended by the manufacturer.
The THP1-Dual cell differentiation assay was carried out as described above in Example 2, using immX3 peptide (330 nM) in all samples plus the indicated helper or inhibitor molecule. Molecules were purched from Cayman Chemical Company (Ann Arbor, MI) or Sigma Chemical Company (St. Louis, MO). AU=arbitrary ELISA units. **p<0.01.

[1] = immX3 peptide 330 nM plus helper at 2 uM
[2] = immX3 peptide 330 nM plus helper at 15 uM
[3] = immX3 peptide 330 nM plus helper at 1 mM
[4] = immX3 peptide 330 nM plus helper at 1 ug/ml

Row | Compound | CD169 (AU) [1] | further results
1 | Hyaluronan [Hyaluronan(HMW-HA)] |  | CD169 (AU) (immX3 peptide 330 nM plus helper at 0.6 ug/ml): 110.5 ± 10.2 AU
2 | Cc1cc2c(cc1C1(c3ccc(C(=O)O)cn3)CC1)C(C)(C)CCC2(C)C [LG100268] | 76.8 ± 11.9** AU | 
3 | GM-CSF |  | CD169 (AU) (immX3 peptide 330 nM plus helper at 0.1 ug/ml): 147.0 ± 15.3** AU
4 | CCCCCCCC(=O)c1c(O)cc(O)cc1CC(=O)OCC [Cytosporone B] | 120.3 ± 6.4** AU | 
5 | Nc1nc2c(ncn2[C@@H]2O[C@@H]3COP(=O)(O)O[C@H]4[C@@H](O)[C@H](n5cnc6c(N)ncnc65)O[C@@H]4COP(=O)(O)O[C@@H]2[C@@H]3O)c(=O)[nH]1 [2′3′-cGAMP] |  | CD169 (AU) [2]: 168.5 ± 10.9** AU
6 | O=C(NCc1ccco1)c1ccc2c(c1)N(Cc1c(F)cccc1Cl)C(=O)CS2 [Peptide G10, G10] | 143.4 ± 17.8** AU | 
7 | Holotransferrin [Holotransferrin (Tf)] |  | CD169 (AU) (immX3 peptide 330 nM plus helper at 0.8 ug/ml): 126.8 ± 9.3** AU
8 | Clc1ccc(C(c2c[nH]c3ccccc23)c2c[nH]c3ccccc23)cc1 [C-DIM12] | 119.0 ± 3.7** AU | 
9 | C[C@H]1C[C@H]2[C@@H]3CCC4=CC(=O)C=C[C@]4(C)[C@@]3(F)[C@@H](O)C[C@]2(C)[C@@]1(O)C(=O)CCl [Clobetasol] | 98.5 ± 5.5 AU | 
10 | Sc1ncnc2nc[nH]c12 [6-mercaptopurine] | 104.9 ± 4.0 AU | 
11 | CN1c2ccccc2N=C(c2ccc(C(=O)O)cc2)c2cc3c(cc21)C(C)(C)CCC3(C)C [HX600] | 110.5 ± 19.0 AU | 
12 | O=C(O)/C=C/C(=O)O [L-fumarate] |  | CD169 (AU) [3]: 101.5 ± 7.3 AU
13 | CC(=O)/C=C1\C(=O)N(C)c2ccccc21 [Supercinnamaldehyde] | 159.7 ± 16.6** AU | 
14 | CN1c2ccc([N+](=O)[O-])cc2N=C(c2ccc(C(=O)O)cc2)c2cc3c(cc21)C(C)(C)CCC3(C)C [HX531] | 90.4 ± 6.2 AU | 
15 | OC[C@H]1O[C@H](OC[C@H]2O[C@H](O[C@]3(CO)O[C@H](CO)[C@@H](O)[C@@H]3O)[C@H](O)[C@@H](O)[C@@H]2O)[C@H](O)[C@@H](O)[C@H]1O [D-raffinose] |  | CD169 (AU) [3]: 111.9 ± 4.0** AU
16 | C=C1/C(=C\C=C2/CCC[C@]3(C)[C@@H]([C@H](C)CCCC(C)(C)O)CC[C@@H]23)C[C@@H](O)C[C@@H]1O [Calcitriol] | 102.0 ± 11.3 AU | 
17 | HP-B-cyclodextrin |  | CD169 (AU) [3]: 121.1 ± 4.6** AU
18 | O=C(CO)[C@@H](O)[C@@H](O)[C@H](O)[C@H](O)CO [D-mannoheptulose] |  | CD169 (AU) (immX3 peptide 330 nM plus helper at 50 uM): 140.8 ± 12.4** AU
19 | C[C@H](O)C(=O)O [L-lactate] |  | CD169 (AU) (immX3 peptide 330 nM plus helper at 300 uM): 121.1 ± 5.6** AU
20 | Leptin |  | CD169 (AU) [4]: 103.3 ± 11.6 AU
21 | CC(=O)S[C@@H]1CC2=CC(=O)CC[C@]2(C)[C@H]2CC[C@@]3(C)[C@@H](CC[C@@]34CCC(=O)O4)[C@H]12 [Spironolactone] | 120.1 ± 10.5** AU | 
22 | CN1C[C@H](C(=O)N[C@]2(C)O[C@@]3(O)[C@@H]4CCCN4C(=O)[C@H](Cc4ccccc4)N3C2=O)C[C@@H]2c3cccc4[nH]cc(c34)C[C@H]21 [Dihydroergotamine] | 170.3 ± 20.7** AU | 
23 | Heparin |  | CD169 (AU) [4]: 34.1 ± 2.9** AU
24 | O=C(O)CC1CC(c2ccccc2)=NO1 (stereo not shown) [GIT27] | 166.5 ± 34.1** AU | 
25 | C=C(c1ccc(C(=O)O)cc1)c1cc2c(cc1C)C(C)(C)CCC2(C)C [Bexarotene] | 96.9 ± 6.8 AU | 
26 | Nc1nc2c(ncn2[C@@H]2O[C@@H]3COP(=O)(O)O[C@H]4[C@@H](O)[C@H](n5cnc6c(=O)[nH]c(N)nc65)O[C@@H]4COP(=O)(O)O[C@H]3[C@H]2O)c(=O)[nH]1 [Cyclic-di-GMP] |  | CD169 (AU) [2]: 142.9 ± 9.7** AU
27 | Oc1ccc(C(c2c[nH]c3ccccc23)c2c[nH]c3ccccc23)cc1 [C-DIM8] | 91.0 ± 24.8 AU | 
28 | O=C1CCc2cc(OCCCCc3nnnn3C3CCCCC3)ccc2N1 [Cilostazol] | 99.4 ± 27.7 AU | 
